Measurements from patent publication US20260373266A1, “PROTEIN DEGRADERS AND USES THEREOF” (KYMERA THERAPEUTICS, INC., priority 2022, published 2026).

Target: T1, DCAF1 WD40 domain (residues 1077-1390) (Homo sapiens, UniProt Q9Y4B6)
T1 construct: DCAF1 WD40 domain (residues 1077-1390)
Test: DCAF1 binding assay by SPR (Biacore 8K+), DCAF1-3 KD
Settings: 25 °C, read-out: DCAF1-3 SPR (KD)

T1 sequence (Q9Y4B6 1077-1390): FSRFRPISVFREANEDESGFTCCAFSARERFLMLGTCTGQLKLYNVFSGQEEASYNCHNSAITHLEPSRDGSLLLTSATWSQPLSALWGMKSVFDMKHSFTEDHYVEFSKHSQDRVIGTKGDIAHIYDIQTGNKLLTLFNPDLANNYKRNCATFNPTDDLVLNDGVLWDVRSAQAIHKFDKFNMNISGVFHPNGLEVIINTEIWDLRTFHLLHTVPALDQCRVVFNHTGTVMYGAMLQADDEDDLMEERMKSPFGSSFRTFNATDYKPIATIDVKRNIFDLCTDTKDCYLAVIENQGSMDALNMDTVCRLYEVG

| SMILES | Kd [µM] |
| --- | --- |
| c1cc2ccnc(N3CCC[C@@H](Nc4cc(N5CCOCC5)ccn4)C3)c2cn1 [I-68] | 100 to 200 |
| c1cnc(N2CCC[C@@H](Nc3cc(N4CCOCC4)ccn3)C2)nc1 [I-69] | 100 to 200 |
| Cc1ccc(N2CCOCC2)cc1N[C@@H]1CCCN(c2cccc(F)c2)C1 [I-70] | > 200 |
| N#Cc1ccc(N2CCOCC2)cc1N[C@@H]1CCCN(c2cccc(F)c2)C1 [I-71] | 10 to 100 |
| Fc1cc2ccccc2c(N2CCC[C@@H](Nc3cc(N4CCOCC4)ccn3)C2)n1 [I-72] | 100 to 200 |
| c1ccc2c(N3CCC[C@@H](Nc4cc(N5CCOCC5)ccn4)C3)noc2c1 [I-73] | 100 to 200 |
| Fc1ccc(N2CCC[C@@H](Nc3cc(N4CCOCC4)ccn3)C2)cc1F [I-74] | 10 to 100 |
| c1ccc(N2CCC[C@@H](Nc3cc(N4CCOCC4)ccn3)C2)cc1 [I-75] | 10 to 100 |
| COCCN(c1cc(N2CCOCC2)ccn1)[C@@H]1CCCN(c2cccc(F)c2)C1 [I-76] | 10 to 100 |
| CNC(=O)C[C@H](NC(=O)c1cn[nH]c1-c1ccccc1F)c1cccc(Cl)c1 [I-79] | 10 to 100 |
| Fc1cccc(N2CCC[C@@H](Oc3cc(N4CCOCC4)ccn3)C2)c1 [I-81] | > 200 |
| CCNC(=O)C[C@H](NC(=O)c1cn[nH]c1-c1ccccc1F)c1cccc(Cl)c1 [I-83] | 10 to 100 |
| O=C(C[C@H](NC(=O)c1cn[nH]c1-c1ccccc1F)c1cccc(Cl)c1)NCc1ccccc1 [I-84] | 10 to 100 |
| O=C(Nc1ccccc1)NC1CCCN(C(=O)N2CCC=C(F)C2)C1 (stereo not shown) [I-85] | > 200 |
| O=C(CC1CN(C(=O)N2CCC=C(F)C2)CCO1)Nc1ccccn1 (stereo not shown) [I-86] | > 200 |
| Fc1cccc(N2CCC[C@@H](Cc3cc(N4CCOCC4)ccn3)C2)c1 [I-87] | > 200 |
| COCCn1ncc(C(=O)N[C@@H](CC(N)=O)c2cccc(Cl)c2)c1-c1ccccc1F [I-88] | > 200 |
| NC(=O)C[C@H](NC(=O)c1cc[nH]c1-c1ccccc1F)c1cccc(Cl)c1 [I-89] | 10 to 100 |
| NC(=O)C[C@H](NC(=O)c1c[nH]cc1-c1ccccc1F)c1cccc(Cl)c1 [I-90] | < 10 |
| Fc1cccc(N2CCC[C@@H](Nc3cc(C4CCCCC4)ccn3)C2)c1 [I-91] | > 200 |
| Fc1cccc(N2CCC[C@@H](Nc3cc(C4CCOCC4)ccn3)C2)c1 [I-92] | > 200 |
| Fc1cccc(N2CCC[C@@H](Nc3cc(C4CCNCC4)ccn3)C2)c1 [I-93] | > 200 |
| Fc1cccc(N2CCC[C@@H](Nc3cc([C@@H]4CCCCO4)ccn3)C2)c1 [I-94] | > 200 |

| SMILES | Kd [µM] |
| --- | --- |
| Fc1cccc(N2CCC[C@@H](Nc3cc([C@H]4CCCCO4)ccn3)C2)c1 [I-95] | > 200 |
| NC(=O)C[C@H](NC(=O)c1c[nH]cc1-c1ccccc1F)c1ccccc1Cl [I-96] | 10 to 100 |
| NC(=O)C[C@H](NC(=O)c1cn[nH]c1-c1ccccc1F)c1ccc(Cl)cc1 [I-97] | < 10 |
| Fc1cccc(N2CCC[C@H](Cc3cc(N4CCOCC4)ccn3)C2)c1 [I-98] | > 200 |
| COCCN1CCC(c2ccnc(N[C@@H]3CCCN(c4cccc(F)c4)C3)c2)CC1 [I-99] | 10 to 100 |
| NC(=O)C[C@H](NC(=O)c1n[nH]cc1-c1ccccc1F)c1cccc(Cl)c1 [I-100] | 10 to 100 |
| Cc1ccc([C@H](CC(N)=O)NC(=O)c2cn[nH]c2-c2ccccc2F)cc1 [I-101] | 10 to 100 |
| Cc1cccc(-c2[nH]ncc2C(=O)N[C@@H](CC(N)=O)c2cccc(Cl)c2)c1 [I-102] | 10 to 100 |
| Cc1ccc(-c2[nH]ncc2C(=O)N[C@@H](CC(N)=O)c2cccc(Cl)c2)cc1 [I-103] | < 10 |
| Cc1ccccc1-c1[nH]ncc1C(=O)N[C@@H](CC(N)=O)c1cccc(Cl)c1 [I-104] | < 10 |
| Cc1ccccc1[C@H](CC(N)=O)NC(=O)c1cn[nH]c1-c1ccccc1F [I-105] | < 10 |
| C[C@H](NC(=O)c1c[nH]nc1-c1ccccc1F)c1cccc(Cl)c1 [I-106] | 10 to 100 |
| Cc1n[nH]cc1C(=O)N[C@@H](CC(N)=O)c1cccc(Cl)c1 [I-107] | > 200 |
| Cc1cccc([C@H](CC(N)=O)NC(=O)c2cn[nH]c2-c2ccccc2F)c1 [I-108] | < 10 |
| Fc1cccc(N2CCC[C@@H](Nc3cc([C@@H]4CCCNC4)ccn3)C2)c1 [I-109] | > 200 |
| Fc1cccc(N2CCC[C@@H](Nc3cc([C@H]4CCCNC4)ccn3)C2)c1 [I-110] | 10 to 100 |
| c1ccc2c(N3CCC[C@@H](Nc4cc(N5CCOCC5)ccn4)C3)n[nH]c2c1 [I-111] | > 200 |
| c1ccc2c(N3CCC[C@@H](Nc4cc(N5CCOCC5)ccn4)C3)nsc2c1 [I-112] | 10 to 100 |
| Fc1cccc(N2CCC[C@@H](Sc3cc(N4CCOCC4)ccn3)C2)c1 [I-113] | > 200 |
| NC(=O)C[C@H](NC(=O)c1[nH]ccc1-c1ccccc1F)c1cccc(Cl)c1 [I-114] | 10 to 100 |
| NC(=O)C[C@H](NC(=O)c1cn[nH]c1-c1cccc(F)c1)c1cccc(Cl)c1 [I-115] | < 10 |
| NC(=O)C[C@H](NC(=O)c1cn[nH]c1-c1ccc(F)cc1)c1cccc(Cl)c1 [I-116] | < 10 |
| N#Cc1cccc([C@H](CC(N)=O)NC(=O)c2c[nH]nc2-c2ccccc2F)c1 [I-117] | 10 to 100 |

| SMILES | Kd [µM] |
| --- | --- |
| N#Cc1ccc([C@H](CC(N)=O)NC(=O)c2c[nH]nc2-c2ccccc2F)cc1 [I-118] | < 10 |
| Fc1cccc(N2CCC[C@H](Nc3nccc(N4CCOCC4)n3)C2)c1 [I-119] | 100 to 200 |
| COCCn1cc(C(=O)N[C@@H](CC(N)=O)c2cccc(Cl)c2)c(-c2ccccc2F)n1 [I-120] | 10 to 100 |
| COc1ccc(N2CCOCC2)cc1N[C@@H]1CCCN(c2cccc(F)c2)C1 [I-121] | > 200 |
| Fc1cccc(N2CCC[C@@H](Nc3cc(C4=CCCOC4)ccn3)C2)c1 [I-122] | > 200 |
| Fc1cccc(N2CCC[C@@H](Nc3cc([C@@H]4CCCOC4)ccn3)C2)c1 [I-123] | > 200 |
| Fc1cccc(N2CCC[C@@H](Nc3cc([C@@H]4CCCCN4)ccn3)C2)c1 [I-124] | > 200 |
| Fc1cccc(N2CCC[C@@H](Nc3cc([C@H]4CCCOC4)ccn3)C2)c1 [I-125] | > 200 |
| Fc1cccc(N2CCC[C@@H](Nc3cc([C@H]4CCCCN4)ccn3)C2)c1 [I-126] | > 200 |
| NC(=O)C[C@H](NC(=O)c1cn[nH]c1-c1cccnc1)c1cccc(Cl)c1 [I-127] | 10 to 100 |
| N#Cc1ccc(-c2[nH]ncc2C(=O)N[C@@H](CC(N)=O)c2cccc(Cl)c2)cc1 [I-128] | 10 to 100 |
| NC(=O)C[C@H](NC(=O)c1cn[nH]c1-c1ccccc1F)c1cccc(O)c1 [I-129] | > 200 |
| NC(=O)C[C@H](NC(=O)c1cn[nH]c1-c1ccccc1F)c1ccc(O)cc1 [I-130] | > 200 |
| NC(=O)C[C@H](NC(=O)c1cn[nH]c1-c1ccccc1F)c1cccnc1 [I-131] | > 200 |
| C[C@H](CC(N)=O)NC(=O)c1cn[nH]c1-c1ccccc1F [I-132] | > 200 |
| NC(=O)C[C@H](NC(=O)c1cnn(CC2CC2)c1-c1ccccc1F)c1cccc(Cl)c1 [I-133] | 10 to 100 |
| CC(C)n1ncc(C(=O)N[C@@H](CC(N)=O)c2cccc(Cl)c2)c1-c1ccccc1F [I-134] | 100 to 200 |
| Fc1cccc(N2C[C@H](F)C[C@@H](Nc3cc(N4CCOCC4)ncn3)C2)c1 [I-135] | > 200 |
| COc1ccc([C@H](CC(N)=O)NC(=O)c2cn[nH]c2-c2ccccc2F)cc1 [I-136] | 100 to 200 |
| NC(=O)C[C@H](NC(=O)c1cn(CC2CC2)nc1-c1ccccc1F)c1cccc(Cl)c1 [I-137] | 10 to 100 |
| CC(C)n1cc(C(=O)N[C@@H](CC(N)=O)c2cccc(Cl)c2)c(-c2ccccc2F)n1 [I-138] | 10 to 100 |
